# Laboratory results reported in US6362369B1, “Phthalic acid diamide derivatives fluorine-containing aniline compounds as starting material, agricultural and horticultural insecticides, and a method for application of the insecticides” (Nihon Nohyaku Co., Ltd., priority 1997, dated 2002).
# Tests used:
# Format in all cases: in vivo
# [1] = test system: diamondback moth (Plutella xylostella); assay: Insecticidal effect on diamondback moth (Test Example 1); settings: diamondback moth; judged by the criterion of Test Example 1
# Procedure, shortened: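 Read-out was mortality from hatched-insect counts taken 6 days after the egg-bearing cabbage seedling was immersed, graded by set criteria. Seedlings were air-dried and kept at 25° C after treatment. Groups of 10 insects, in triplicate.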
# [2] = test system: common cutworm (Spodoptera Litura); assay: Insecticidal effect on common cutworm (Test Example 2); settings: 500 ppm, cabbage leaf dip, second-instar larvae of common cutworm, 8 days after inoculation, 25° C.
# Procedure, shortened: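 Second-instar larvae placed in 9 cm Petri dishes with air-dried treated material, held at 25 °C. Dead and live insects counted 8 days after inoculation; mortality calculated and scored against a set criterion. Triplicate groups of 10 insects.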
# [3] = test system: rice leafroller (Cnaphalocrocis medinalis); assay: Insecticidal effect on rice leafroller (Test Example 3); settings: 500 ppm, rice lamina dip, third-instar larvae of rice leafroller, 4 days after inoculation, 25° C., humidity 70%
# Procedure, shortened: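 Groups of 10 third-instar larvae, in triplicate, are placed on air-dried lamina resting on wet filter paper. Incubation runs four days at 25° C with 70% humidity before survivors and dead are tallied.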
SMILES,"Insecticidal effect (Test Example 1), judged from mortality [1]","Insecticidal effect (Test Example 2), judged from mortality [2]","Insecticidal effect (Test Example 3), judged from mortality [3]"
CCN(CC)C(=O)c1c(F)cccc1C(=O)Nc1ccc(C(F)(C(F)(F)F)C(F)(F)F)cc1C [compound 1526],A (100),A (100),A (100)
CCN(CC)C(=O)c1c(F)cccc1C(=O)Nc1ccc(C(F)(F)C(F)(F)F)cc1Cl [compound 1531],A (100),A (100),A (100)
CCN(CC)C(=O)c1c(I)cccc1C(=O)Nc1ccc(C(F)(C(F)(F)F)C(F)(F)F)cc1C [compound 1532],A (100),A (100),A (100)
CCN(CC)C(=O)c1c(I)cccc1C(=O)Nc1ccc(OC(F)(F)F)cc1C [compound 1533],A (100),A (100),A (100)
CCN(CC)C(=O)c1c(I)cccc1C(=O)Nc1ccc(OC(F)(F)F)cc1 [compound 1534],A (100),A (100),A (100)
CCN(CC)C(=O)c1c(Cl)cccc1C(=O)Nc1ccc(C(F)(F)C(F)(F)F)cc1C [compound 1535],A (100),A (100),A (100)
CCN(CC)C(=O)c1c(Cl)cccc1C(=O)Nc1ccc(OC(F)(F)F)cc1C [compound 1536],A (100),A (100),A (100)
CCN(CC)C(=O)c1c(Cl)cccc1C(=O)Nc1ccc(C(F)(C(F)(F)F)C(F)(F)F)cc1C [compound 1537],A (100),A (100),A (100)
CCN(CC)C(=O)c1c(Cl)cccc1C(=O)Nc1ccc(OC(F)F)cc1C [compound 1538],A (100),A (100),A (100)
CCN(CC)C(=O)c1c(Cl)cccc1C(=O)Nc1ccc(OC(F)(F)C(F)F)cc1C [compound 1539],A (100),A (100),A (100)
CCN(CC)C(=O)c1c(Cl)cccc1C(=O)Nc1ccc(C(F)(F)C(F)(F)F)cc1Cl [compound 1540],A (100),A (100),A (100)
CCN(CC)C(=O)c1c(Cl)cccc1C(=O)Nc1ccc(C(F)(F)C(F)(F)F)cc1F [compound 1541],A (100),A (100),A (100)
CCN(CC)C(=O)c1c(Cl)cccc1C(=O)Nc1ccc(Cl)cc1C [compound 1542],A (100),D (79-50),A (100)
CCc1cc(C(F)(F)C(F)(F)F)ccc1NC(=O)c1cccc(Cl)c1C(=O)N(CC)CC [compound 1543],A (100),A (100),A (100)
CCN(CC)C(=O)c1c(Cl)cccc1C(=O)Nc1ccc(OC(F)(F)F)cc1 [compound 1544],A (100),A (100),A (100)
CCN(CC)C(=O)c1c(Cl)cccc1C(=O)Nc1ccc(C(F)(F)F)cc1 [compound 1545],A (100),D (79-50),A (100)
CCN(CC)C(=O)c1c(F)cccc1C(=O)Nc1ccc(Cl)cc1C [compound 1546],A (100),C (89-80),A (100)
CCc1cc(C(F)(F)C(F)(F)F)ccc1NC(=O)c1cccc(F)c1C(=O)N(CC)CC [compound 1549],A (100),D (79-50),A (100)
CCN(CC)C(=O)c1c(C(=O)Nc2ccc(C(F)(F)C(F)(F)F)cc2C)cccc1[N+](=O)[O-] [compound 1550],A (100),A (100),A (100)
CCN(CC)C(=O)c1cccc([N+](=O)[O-])c1C(=O)Nc1ccc(C(F)(F)C(F)(F)F)cc1C [compound 1551],A (100),D (79-50),A (100)
Cc1cc(NC(=O)c2cccc(I)c2C(=O)NC(C)(C)C)ccc1C(F)(F)C(F)(F)F [compound 1552],A (100),A (100),A (100)
CCN(CC)C(=O)c1c(I)cccc1C(=O)Nc1ccc(OC(F)(F)C(F)F)cc1C [compound 1556],A (100),A (100),A (100)
CCN(CC)C(=O)c1c(I)cccc1C(=O)Nc1ccc(Cl)cc1C [compound 1557],A (100),A (100),A (100)
CCN(CC)C(=O)c1c(I)cccc1C(=O)Nc1ccc(C(F)(F)F)cc1 [compound 1558],A (100),C (89-80),A (100)
CCc1cc(C(F)(F)C(F)(F)F)ccc1NC(=O)c1cccc(I)c1C(=O)N(CC)CC [compound 1559],A (100),A (100),A (100)
CCN(CC)C(=O)c1c(I)cccc1C(=O)Nc1ccc(C(F)(F)C(F)(F)F)cc1Cl [compound 1560],A (100),A (100),A (100)
CCN(CC)C(=O)c1c(I)cccc1C(=O)Nc1ccc(C(F)(F)C(F)(F)F)cc1C [compound 1561],A (100),A (100),A (100)
CC(C)(C)NC(=O)c1c(I)cccc1C(=O)Nc1ccc(C(F)(F)C(F)(F)F)cc1Br [compound 1562],A (100),A (100),A (100)
